Experimental data: patent publication US5759842A, “In vitro HIV integrase inhibitors” (Merck & Co., Inc., priority 1996, dated 1998)

Tests used:
[1] = target: DNP-stimulatedATPase activity of rat liver mitochondria; conditions: Koenig et al. 1993, read-out: IC50, DNP-stimulated ATPase activity; cited from earlier work
[2] = target: DNP-stimulatedATPase activity of rat liver mitoplast; conditions: Koenig et al. 1993, read-out: IC50, DNP-stimulated ATPase activity; cited from earlier work
HIV Integrase = HIV Integrase (Human immunodeficiency virus type 1 group M subtype B, UniProt P04585); assay: Assay for Inhibition of Strand Transfer by HIV Integrase; type: biochemical
Method: Assay for Inhibition of Strand Transfer by HIV Integrase
Inhibition of strand transfer was conducted according to Hazuda, D. J. et al. Nucleic Acids Res., 22, 1121 (1994), hereby incorporated by reference for these purposes.

Structure (SMILES) | IC50 [1] [nM] | IC50 [2] [nM] | IC50 (HIV Integrase) [µM]
CC=CC1C=CC2CC(C)CCC2C1(C)C(O)=C1C(=O)C(CO)N(C)C1=O (centres unmarked) [Compound A, equisetin] | ~8 | ~8 | 7
CC=CC=CC1C(C)=CC2CC(C)CCC2C1(C)C(O)=C1C(=O)C(CO)N(C)C1=O (centres unmarked) [Compound B] |  |  | 11
CCCCCC1C(C)=CC2CC(C)CCC2C1(C)C(O)=C1C(=O)C(CO)N(C)C1=O (centres unmarked) [Compound C] |  |  | 5
